Reference: publication PMC5041986 (Oncotarget, 2016)
Like-named read-outs stand apart in the source and are kept apart here.

Key:
[1] = system: PLC/PRF/5 cells; assay: MTT cell viability assay; assay type: cell-based; conditions: 72 h; for Viability (% of control cells) PLC5/PRF/5 (5 μM): mean
Protocol: (§3) Cells were seeded in 96-well plates and exposed to DMSO, or indicated compounds for 72 hours. Cell viability was assessed using the 3-(4,5-dimethylthiazol-2-yl)-2,5-diphenyltetrazolium bromide (MTT) assay as described previously [46]. Briefly, 100 μl of 0.5 mg/ml MTT were added to each well and incubated at 37°C for 1 hour. After that, 100 μl of extraction reagents (0.1 M sodium acetate buffer for suspension cells or DMSO for attached cells) were added to each well to lyse cells and absorbance at 550 nm was measured. Cell viability was expressed as the percentage of surviving cells in drug-treated versus DMSO-treated control cells (which was considered as 100% viability).

[2] = system: Hep3B cells; assay: MTT cell viability assay; assay type: cell-based; conditions: 72 h, mean
Protocol: as §3

[3] = system: SNU-16 cells; assay: MTT cell viability assay; assay type: cell-based; conditions: 72 h; for Viability (% of control cells) SNU-16 (5 μM): mean
Protocol: as §3

[4] = system: RT-112 cells; assay: MTT cell viability assay; assay type: cell-based; conditions: 72 h; for Viability (% of control cells) RT-112 (5 μM) / Viability (% of control cells) RT-112 (10 μM): mean
Protocol: as §3

[5] = system: A549 cells; assay: MTT cell viability assay; assay type: cell-based; conditions: Homo sapiens, A549 (lung), 72 h
Protocol: as §3

[6] = target: T1, Erbb2 (Homo sapiens, UniProt P04626); assay: KINOMEscan competition-binding assay
T1 construct: purchased DiscoverRx (KINOMEscan service)
Protocol: (§1) The screening is based on a competition-binding assay and the K d values were determined as described previously.

[7] = target: T2, FGFR4 (Homo sapiens, UniProt P22455); assay: KINOMEscan competition-binding assay
T2 construct: purchased DiscoverRx (KINOMEscan service)
Protocol: as §1

[8] = target: T3, FGFR2 (Homo sapiens, UniProt P21802); assay: KINOMEscan competition-binding assay
T3 construct: purchased DiscoverRx (KINOMEscan service)
Protocol: as §1

[9] = target: T4, CSF1R (Homo sapiens, UniProt P07333); assay: KINOMEscan competition-binding assay
T4 construct: purchased DiscoverRx (KINOMEscan service)
Protocol: as §1

[10] = target: T5, FGFR3 (Homo sapiens, UniProt P22607); assay: KINOMEscan competition-binding assay
T5 construct: purchased DiscoverRx (KINOMEscan service)
Protocol: as §1

[11] = target: T6, TYK2 (Homo sapiens, UniProt P29597); assay: KINOMEscan competition-binding assay
T6 construct: purchased DiscoverRx (KINOMEscan service)
Protocol: as §1

[12] = target: T7, FGFR1 (Homo sapiens, UniProt P11362); assay: KINOMEscan competition-binding assay
T7 construct: purchased DiscoverRx (KINOMEscan service)
Protocol: as §1

[13] = target: T8, PDGFRB (Homo sapiens, UniProt P09619); assay: KINOMEscan competition-binding assay
T8 construct: purchased DiscoverRx (KINOMEscan service)
Protocol: as §1

[14] = target: T9, FLT3 (Homo sapiens, UniProt P36888); assay: KINOMEscan competition-binding assay
T9 construct: purchased DiscoverRx (KINOMEscan service)
Protocol: as §1

[15] = target: T10, VEGFR2 (Homo sapiens, UniProt P35968); assay: KINOMEscan competition-binding assay
T10 construct: purchased DiscoverRx (KINOMEscan service)
Protocol: as §1

[16] = system: MDA-MB-231 cells; assay: MTT cell viability assay; assay type: cell-based; conditions: Homo sapiens, MDA-MB-231 (breast), 72 h
Protocol: as §3

[17] = system: LC3B-I to LC3B-II conversion in RT-112 cells; assay: Western blot of autophagy marker LC3B; assay type: cell-based
Protocol: (§2) Cells were seeded and treated with indicated compounds at various concentrations for the indicated times. After treatment, cells were harvested by scraping with RIPA buffer containing protease inhibitors and phosphatase inhibitors (Roche Diagnostics Corp., Indianapolis, IN, USA). Total cell lysates were centrifuged at 13,000 g for 30 min and equal amounts of protein were separated by SDS–PAGE and immunoblotted with specific antibodies as previous described. The cells were allowed to recover for 24 h before following treatment. The small interfering RNA (siRNA) for Atg5 (HSS114103, HSS114104, HSS190366), and negative control (siCTL) were purchased from Invitrogen (Carlsbad, CA, USA). Transient transfection was performed by using lipofectamine 2000 according to the manufacture's instructions.

[18] = system: RT4 cells; assay: MTT cell viability assay; assay type: cell-based; conditions: Homo sapiens, RT-4, RT4 (bladder), 72 h
Protocol: as §3

[19] = system: RT-112 cells; assay: Flow cytometric cell cycle analysis; assay type: cell-based; conditions: flow cytometry; for accumulation of the sub-G1 phase (apoptotic cell death): 48 h to 72 h
Protocol: Cells were seeded in 6-well plates and treated with DMSO or indicated compounds at various concentrations for the indicated times. After treatment, the cells were harvested by trypsinization, washed with PBS, and the pellets were fixed in ice-cold 70% ethanol at -20°C overnight. After centrifugation, the cells were incubated for 15 minutes at room temperature in 0.1 mL of phosphate-citric acid buffer (0.2 M NaHPO4, 0.1 M citric acid, and pH 7.8) and then stained with propidium iodide staining buffer containing Triton X-100 (0.1%, v/v), RNase A (100 μg/mL), and propidium iodide (80 μg/mL) for 30 minutes in the dark. DNA contents were analyzed by flow cytometry with CellQuest software (Becton Dickinson, Mountain View, CA, USA). The results were obtained from three independent experiments and the representative data were shown in Supplementary Figure S8 and S9.

[20] = system: phosphorylation of FGFR1, FGFR3, FRS2, ERK and AKT in RT-112 cells; assay: Western blot of FGFR signaling; assay type: cell-based
Protocol: as §2

[21] = system: KMS-11 cells; assay: MTT cell viability assay; assay type: cell-based; conditions: Homo sapiens, KMS-11 (myeloma), 72 h
Protocol: as §3

[22] = system: RPMI-8226 cells; assay: MTT cell viability assay; assay type: cell-based; conditions: Homo sapiens, RPMI-8226 (myeloma), 72 h
Protocol: as §3

[23] = system: HCT-116 cells; assay: MTT cell viability assay; assay type: cell-based; conditions: Homo sapiens, HCT-116 (colorectal), 72 h
Protocol: as §3

[24] = system: RT-112 tumor xenografts; assay: RT-112 xenograft model; assay type: in vivo; conditions: for tumor growth inhibition (% TGI): ip, nude mice
Protocol: Tumors were measured weekly using calipers. Tumor volume (mm^3) was calculated from w^2×l/2 (w = width, l= length in mm of the tumor).

[25] = system: MCF-7 cells; assay: MTT cell viability assay; assay type: cell-based; conditions: Homo sapiens, MCF7, MCF-7 (breast), 72 h
Protocol: as §3

[26] = system: RT-112 cells; assay: SA-β-galactosidase staining (senescence); assay type: cell-based
Protocol: Cells were seeded in 6-well plates and treated with indicated agents for 24h. Senescence was measured by Senescence β-Galactosidase Staining Kit according to the manufacture's instruction (Cell Signaling Technology, Danvers, MA, USA).

[27] = system: T24 cells; assay: MTT cell viability assay; assay type: cell-based; conditions: Homo sapiens, T-24, T24 (bladder), 72 h
Protocol: as §3

[28] = system: HepG2 cells; assay: MTT cell viability assay; assay type: cell-based; conditions: Homo sapiens, HepG2 (liver), 72 h
Protocol: as §3

[29] = system: FUDDLS cells; assay: MTT cell viability assay; assay type: cell-based; conditions: Homo sapiens, FUDDLS (sarcoma), 72 h
Protocol: as §3

[30] = system: FGFR-dependent versus FGFR-independent cells; assay: MTT cell viability assay, mean over cell line panel; assay type: cell-based

T5 sequence (P22607 23-806): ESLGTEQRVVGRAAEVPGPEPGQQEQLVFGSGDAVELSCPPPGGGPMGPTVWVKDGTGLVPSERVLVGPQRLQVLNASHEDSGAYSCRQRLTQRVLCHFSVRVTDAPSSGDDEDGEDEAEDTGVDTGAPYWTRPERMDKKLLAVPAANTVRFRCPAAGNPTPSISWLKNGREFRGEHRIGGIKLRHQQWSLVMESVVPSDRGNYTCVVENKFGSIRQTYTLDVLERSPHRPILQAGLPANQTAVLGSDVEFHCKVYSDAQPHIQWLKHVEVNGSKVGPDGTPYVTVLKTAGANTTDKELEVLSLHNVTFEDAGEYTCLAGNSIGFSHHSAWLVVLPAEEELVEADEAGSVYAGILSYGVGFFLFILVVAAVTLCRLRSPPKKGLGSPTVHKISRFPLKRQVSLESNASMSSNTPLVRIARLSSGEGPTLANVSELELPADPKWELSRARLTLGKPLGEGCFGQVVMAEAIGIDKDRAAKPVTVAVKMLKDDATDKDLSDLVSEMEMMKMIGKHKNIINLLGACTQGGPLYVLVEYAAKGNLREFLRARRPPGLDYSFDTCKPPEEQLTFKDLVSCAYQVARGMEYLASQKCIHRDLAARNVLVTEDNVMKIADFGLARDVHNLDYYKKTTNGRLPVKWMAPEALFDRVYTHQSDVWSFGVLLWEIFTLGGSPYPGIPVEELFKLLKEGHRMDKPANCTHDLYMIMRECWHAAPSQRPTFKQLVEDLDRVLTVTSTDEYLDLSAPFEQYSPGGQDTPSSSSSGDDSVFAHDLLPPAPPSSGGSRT
T8 sequence (P09619 33-1106): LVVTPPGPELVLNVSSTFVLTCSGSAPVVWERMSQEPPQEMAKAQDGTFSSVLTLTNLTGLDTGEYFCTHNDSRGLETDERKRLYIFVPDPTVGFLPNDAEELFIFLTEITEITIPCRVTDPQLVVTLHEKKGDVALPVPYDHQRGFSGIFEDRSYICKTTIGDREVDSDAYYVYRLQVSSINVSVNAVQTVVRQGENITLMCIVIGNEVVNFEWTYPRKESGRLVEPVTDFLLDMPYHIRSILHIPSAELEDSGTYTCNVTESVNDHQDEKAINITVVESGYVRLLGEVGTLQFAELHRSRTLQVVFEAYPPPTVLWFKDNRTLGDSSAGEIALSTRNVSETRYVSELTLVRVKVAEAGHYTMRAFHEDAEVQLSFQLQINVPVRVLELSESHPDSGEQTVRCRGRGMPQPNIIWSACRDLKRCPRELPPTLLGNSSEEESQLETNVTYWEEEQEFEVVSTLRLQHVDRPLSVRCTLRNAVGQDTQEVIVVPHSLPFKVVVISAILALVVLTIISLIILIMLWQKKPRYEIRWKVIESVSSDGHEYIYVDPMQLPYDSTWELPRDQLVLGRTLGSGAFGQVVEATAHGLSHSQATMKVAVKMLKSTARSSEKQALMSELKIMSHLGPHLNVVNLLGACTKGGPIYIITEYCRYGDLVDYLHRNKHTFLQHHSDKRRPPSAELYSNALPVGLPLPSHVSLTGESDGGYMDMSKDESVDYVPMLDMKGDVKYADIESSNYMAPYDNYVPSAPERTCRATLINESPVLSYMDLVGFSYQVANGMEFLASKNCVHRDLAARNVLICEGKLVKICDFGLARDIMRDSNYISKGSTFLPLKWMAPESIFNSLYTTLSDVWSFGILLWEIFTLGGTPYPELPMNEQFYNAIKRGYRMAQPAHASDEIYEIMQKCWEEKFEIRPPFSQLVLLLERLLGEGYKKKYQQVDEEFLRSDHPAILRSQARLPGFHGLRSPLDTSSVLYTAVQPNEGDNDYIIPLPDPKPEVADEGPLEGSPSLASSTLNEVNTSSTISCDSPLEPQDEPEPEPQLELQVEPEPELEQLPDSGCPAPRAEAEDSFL
T4 sequence (P07333 20-972): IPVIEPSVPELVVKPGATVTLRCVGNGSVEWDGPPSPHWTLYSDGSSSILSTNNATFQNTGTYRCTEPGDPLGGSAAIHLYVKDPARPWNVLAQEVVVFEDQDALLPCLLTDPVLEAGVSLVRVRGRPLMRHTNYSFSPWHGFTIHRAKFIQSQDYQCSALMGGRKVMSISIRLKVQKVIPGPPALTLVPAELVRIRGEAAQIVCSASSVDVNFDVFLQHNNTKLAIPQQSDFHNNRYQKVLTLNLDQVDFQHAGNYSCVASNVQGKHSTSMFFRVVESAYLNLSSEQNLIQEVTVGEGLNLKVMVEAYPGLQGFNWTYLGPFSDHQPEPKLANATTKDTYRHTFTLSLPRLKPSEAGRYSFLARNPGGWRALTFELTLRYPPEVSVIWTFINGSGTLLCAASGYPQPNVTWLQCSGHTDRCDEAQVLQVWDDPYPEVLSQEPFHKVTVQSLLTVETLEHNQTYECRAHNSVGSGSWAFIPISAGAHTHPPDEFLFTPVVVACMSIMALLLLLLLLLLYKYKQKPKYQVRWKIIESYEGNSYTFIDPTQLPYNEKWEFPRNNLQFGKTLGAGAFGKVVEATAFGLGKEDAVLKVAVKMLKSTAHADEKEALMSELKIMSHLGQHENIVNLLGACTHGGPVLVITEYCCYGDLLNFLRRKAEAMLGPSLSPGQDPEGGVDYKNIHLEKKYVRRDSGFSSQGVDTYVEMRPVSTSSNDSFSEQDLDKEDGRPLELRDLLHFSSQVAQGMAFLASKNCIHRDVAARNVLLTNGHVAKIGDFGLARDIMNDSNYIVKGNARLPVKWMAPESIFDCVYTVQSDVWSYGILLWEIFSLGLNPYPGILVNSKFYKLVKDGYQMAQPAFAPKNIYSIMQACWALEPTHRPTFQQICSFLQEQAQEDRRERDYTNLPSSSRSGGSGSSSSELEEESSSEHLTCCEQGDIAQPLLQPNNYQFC
T6 sequence (P29597 whole entry): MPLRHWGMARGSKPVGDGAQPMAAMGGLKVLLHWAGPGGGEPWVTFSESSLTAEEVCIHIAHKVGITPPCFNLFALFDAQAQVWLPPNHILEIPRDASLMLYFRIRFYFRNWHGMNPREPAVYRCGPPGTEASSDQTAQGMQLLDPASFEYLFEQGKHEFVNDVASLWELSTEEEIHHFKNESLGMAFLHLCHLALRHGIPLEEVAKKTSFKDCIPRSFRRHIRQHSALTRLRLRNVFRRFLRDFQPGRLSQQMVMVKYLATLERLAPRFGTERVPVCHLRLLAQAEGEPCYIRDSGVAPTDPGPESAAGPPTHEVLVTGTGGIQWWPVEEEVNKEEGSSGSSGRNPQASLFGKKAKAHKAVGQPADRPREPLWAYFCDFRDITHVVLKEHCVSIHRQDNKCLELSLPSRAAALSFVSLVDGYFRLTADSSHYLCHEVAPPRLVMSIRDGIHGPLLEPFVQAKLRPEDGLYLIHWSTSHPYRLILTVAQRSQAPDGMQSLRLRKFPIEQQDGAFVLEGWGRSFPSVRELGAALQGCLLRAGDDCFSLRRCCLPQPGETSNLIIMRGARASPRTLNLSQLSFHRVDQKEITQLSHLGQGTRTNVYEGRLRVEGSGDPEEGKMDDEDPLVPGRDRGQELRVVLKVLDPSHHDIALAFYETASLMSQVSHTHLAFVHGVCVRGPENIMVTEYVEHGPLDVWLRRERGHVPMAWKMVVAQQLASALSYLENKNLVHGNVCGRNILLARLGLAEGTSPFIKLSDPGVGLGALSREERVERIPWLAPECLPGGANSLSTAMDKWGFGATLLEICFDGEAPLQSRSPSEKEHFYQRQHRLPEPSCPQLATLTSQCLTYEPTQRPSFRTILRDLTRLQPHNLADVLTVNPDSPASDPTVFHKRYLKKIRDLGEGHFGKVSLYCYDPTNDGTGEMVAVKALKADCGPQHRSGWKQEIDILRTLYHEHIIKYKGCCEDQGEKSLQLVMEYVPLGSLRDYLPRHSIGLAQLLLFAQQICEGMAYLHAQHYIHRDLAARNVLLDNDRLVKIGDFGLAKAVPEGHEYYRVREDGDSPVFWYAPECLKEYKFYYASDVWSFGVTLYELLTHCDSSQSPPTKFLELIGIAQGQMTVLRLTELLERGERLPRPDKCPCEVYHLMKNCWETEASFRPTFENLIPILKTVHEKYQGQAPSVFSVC
T3 sequence (P21802 22-821): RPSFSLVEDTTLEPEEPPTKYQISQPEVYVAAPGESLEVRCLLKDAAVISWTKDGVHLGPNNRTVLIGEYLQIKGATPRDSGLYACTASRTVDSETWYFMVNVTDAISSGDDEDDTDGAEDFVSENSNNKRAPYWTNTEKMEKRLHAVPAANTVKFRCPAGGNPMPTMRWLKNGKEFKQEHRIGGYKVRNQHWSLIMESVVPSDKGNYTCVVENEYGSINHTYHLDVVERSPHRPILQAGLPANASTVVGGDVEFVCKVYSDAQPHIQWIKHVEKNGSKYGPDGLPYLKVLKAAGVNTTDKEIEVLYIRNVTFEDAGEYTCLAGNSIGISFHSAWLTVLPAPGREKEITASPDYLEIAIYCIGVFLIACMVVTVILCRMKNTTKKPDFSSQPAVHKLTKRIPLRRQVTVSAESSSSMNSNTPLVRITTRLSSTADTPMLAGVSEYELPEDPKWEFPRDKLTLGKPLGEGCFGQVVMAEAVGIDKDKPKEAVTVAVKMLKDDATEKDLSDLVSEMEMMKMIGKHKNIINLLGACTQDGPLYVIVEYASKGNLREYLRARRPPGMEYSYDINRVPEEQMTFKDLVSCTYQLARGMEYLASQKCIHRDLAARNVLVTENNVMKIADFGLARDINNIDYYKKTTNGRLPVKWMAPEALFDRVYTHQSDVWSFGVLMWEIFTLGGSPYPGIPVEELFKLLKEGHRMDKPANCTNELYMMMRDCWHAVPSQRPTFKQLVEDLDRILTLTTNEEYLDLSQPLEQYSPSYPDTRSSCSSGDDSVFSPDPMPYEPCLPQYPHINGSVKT

CCN1CCN(c2ccc(Nc3cc(N(C)C(=O)Nc4c(Cl)c(OC)c(Cl)c(OC)c4Cl)ncn3)cc2)CC1 [MPT0L090]
Viability (% of control cells) PLC5/PRF/5 (5 μM) [1]: 72.6 % of control cells
Viability (% of control cells) Hep3B (5 μM) [2]: 47.1 % of control cells
Viability (% of control cells) SNU-16 (5 μM) [3]: 27.5 % of control cells
Viability (% of control cells) RT-112 (5 μM) [4]: 52.6 % of control cells
Viability (% of control cells) RT-112 (10 μM) [4]: 12.7 % of control cells

CCN1CCN(c2ccc(Nc3ncnc(N(C)C(=O)Nc4c(Cl)c(OC)c(Cl)c(OC)c4Cl)n3)cc2)CC1 [MPT0L145]
IC50 ([1]; Homo sapiens, PLC/PRF/5 (liver)): 1.48 ± 0.3 µM
Viability (% of control cells) PLC5/PRF/5 (5 μM) [1]: 20.6 % of control cells
IC50 [5]: 5.97 ± 0.1 µM
Kd [6]: 10 µM
Kd [7]: 7.5 µM
Kd [8]: 0.67 µM
Kd [9]: 0.34 µM
Kd [10]: 0.27 µM
Kd [11]: 0.66 µM
Kd [12]: 0.13 µM
Kd [13]: 0.68 µM
Kd [14]: 1.3 µM
Kd [15]: 3.1 µM
IC50 [16]: 6.04 ± 0.26 µM
conversion of LC3B-I to LC3B-II [17]: induced the conversion of LC3B-I to LC3B-II in a time- and concentration-dependent manner
IC50 [18]: 4 ± 0.58 µM
G0/G1 cell cycle arrest ([19]; 4 μM, 24 h): induced G0/G1 cell cycle arrest to a dramatic extent
accumulation of the sub-G1 phase (apoptotic cell death) [19]: did not promote accumulation of the sub-G1 phase
auto-phosphorylation of FGFR1 and FGFR3 and docking protein FRS2 ([20]; 1 h): exerted inhibitory activity
phosphorylation of ERK and AKT ([20]; 8 h): fully repressed
IC50 [21]: 2.05 ± 0.11 µM
IC50 [22]: 8.51 ± 1.77 µM
Viability (% of control cells) Hep3B (5 μM) [2]: 66.2 % of control cells
IC50 [23]: 6.12 ± 0.01 µM
IC50 ([3]; Homo sapiens, SNU-16 (gastric)): 0.65 ± 0.07 µM
Viability (% of control cells) SNU-16 (5 μM) [3]: 36.9 % of control cells
tumor growth inhibition (% TGI) ([24]; 5 mg/kg, qd): 61.4%
tumor growth inhibition (% TGI) ([24]; 10 mg/kg, qd): 74.6%
safety from assessment of body weight loss after treatment ([24]; compared with cisplatin): better safety
IC50 [25]: 5.98 ± 0.68 µM
senescence (β-galactosidase activity) [26]: no appreciable senescence
IC50 [27]: 6 ± 0.5 µM
IC50 ([4]; Homo sapiens, RT-112 (bladder)): 1.63 ± 0.01 µM
Viability (% of control cells) RT-112 (5 μM) [4]: 33.4 % of control cells
Viability (% of control cells) RT-112 (10 μM) [4]: 8.5 % of control cells
IC50 [28]: 1.18 ± 0.16 µM
IC50 [29]: 4.74 ± 0.49 µM
IC50 ([30]; mean over FGFR-dependent cell lines, read-out: mean IC50 in FGFR-dependent cells): 1.83 µM
IC50 ([30]; mean over FGFR-independent cell lines, read-out: mean IC50 in FGFR-independent cells): 6.74 µM

COc1c(Cl)c(NC(=O)N(C)c2cc(-c3cccnc3)ncn2)c(Cl)c(OC)c1Cl [MPT0L147]
Viability (% of control cells) RT-112 (10 μM) [4]: 85.0 % of control cells

COc1c(Cl)c(NC(=O)N(C)c2cc(-c3cccc(C#N)c3)ncn2)c(Cl)c(OC)c1Cl [MPT0L150]
Viability (% of control cells) RT-112 (10 μM) [4]: 75.0 % of control cells

COc1c(Cl)c(NC(=O)N(C)c2cc(-c3cccc([N+](=O)[O-])c3)ncn2)c(Cl)c(OC)c1Cl [MPT0L151]
Viability (% of control cells) RT-112 (10 μM) [4]: 63.8 % of control cells

COc1c(Cl)c(NC(=O)N(C)c2cc(-c3ccc(C#N)cc3)ncn2)c(Cl)c(OC)c1Cl [MPT0L152]
Viability (% of control cells) RT-112 (10 μM) [4]: 55.3 % of control cells

COc1c(Cl)c(NC(=O)N(C)c2cc(-c3ccco3)ncn2)c(Cl)c(OC)c1Cl [MPT0L154]
Viability (% of control cells) RT-112 (10 μM) [4]: 76.1 % of control cells

COc1c(Cl)c(NC(=O)N(C)c2cc(-c3ccc(F)cc3)ncn2)c(Cl)c(OC)c1Cl [MPT0L155]
Viability (% of control cells) PLC5/PRF/5 (5 μM) [1]: 55.3 % of control cells
Viability (% of control cells) Hep3B (5 μM) [2]: 72.8 % of control cells
Viability (% of control cells) SNU-16 (5 μM) [3]: 80.5 % of control cells
Viability (% of control cells) RT-112 (5 μM) [4]: 92.6 % of control cells
Viability (% of control cells) RT-112 (10 μM) [4]: 44.4 % of control cells

COc1c(Cl)c(NC(=O)N(C)c2cc(-c3ccc(Cl)cc3)ncn2)c(Cl)c(OC)c1Cl [MPT0L156]
Viability (% of control cells) PLC5/PRF/5 (5 μM) [1]: 44.4 % of control cells
Viability (% of control cells) Hep3B (5 μM) [2]: 54.3 % of control cells
Viability (% of control cells) SNU-16 (5 μM) [3]: 76.7 % of control cells
Viability (% of control cells) RT-112 (5 μM) [4]: 98.3 % of control cells
Viability (% of control cells) RT-112 (10 μM) [4]: 34.8 % of control cells

CCN1CCN(c2ccc(-c3cc(N(C)C(=O)Nc4c(Cl)c(OC)c(Cl)c(OC)c4Cl)ncn3)cc2)CC1 [MPT0L182]
Viability (% of control cells) PLC5/PRF/5 (5 μM) [1]: 78.3 % of control cells
Viability (% of control cells) Hep3B (5 μM) [2]: 96.3 % of control cells
Viability (% of control cells) SNU-16 (5 μM) [3]: 63.2 % of control cells
Viability (% of control cells) RT-112 (5 μM) [4]: 95.6 % of control cells
Viability (% of control cells) RT-112 (10 μM) [4]: 8.6 % of control cells

N.N.[Cl][Pt][Cl] [cisplatin, reference compound]
tumor growth inhibition (% TGI) ([24]; 5 mg/kg, qwk): 56.3%

COc1cccc2c1C(=O)c1c(O)c3c(c(O)c1C2=O)C[C@@](O)(C(=O)CO)C[C@@H]3O[C@H]1C[C@H](N)[C@H](O)[C@H](C)O1 [doxorubicin, reference compound]
senescence (β-galactosidase activity) [26]: increased β-galactosidase activity

CC(=O)O[C@H]1C(=O)[C@@]2(C)[C@H]([C@H](OC(=O)c3ccccc3)[C@]3(O)C[C@H](OC(=O)[C@H](O)[C@@H](NC(=O)c4ccccc4)c4ccccc4)C(C)=C1C3(C)C)[C@]1(OC(C)=O)CO[C@@H]1C[C@@H]2O [paclitaxel]
accumulation of the sub-G1 phase (apoptotic cell death) [19]: induced pronounced apoptosis
